Data: patent publication US9388389B2, “JFH-1 based HCV cell culture systems for NS5A of genotypes 1-7” (Hvidovre Hospital, priority 2009, dated 2016)
Several values for one entry are separate records, joined by “and”; a condition that tells them apart may be missing. Equal entries are not always repeated.

Columns and labels:
Huh7.5 cells [1] = assay: Spread of infection in culture, anti-Core immunostaining; format: cell-based; details: for spread in culture / to the majority of culture, day after transfection: Huh7.5 cells, after transfection of RNA transcripts; for percentage of culture infected: day 8 after transfection
Description: (§1) Culturing of Huh7.5 cells was done as described by Gottwein et al. 2007. One day prior to transfection or infection, naïve Huh7.5 cells were plated at 4×10^5/well in 6-well plates. In vitro transcription was carried out for 2 hours with T7 RNA polymerase (Promega) on 5 μg plasmid linearized with XbaI and treated with Mung Bean Nuclease (New England Biolabs, Beverly, Mass., USA) to yield the exact HCV 3′ end. For transfection, 2.5 μg of unpurified RNA transcripts were incubated with 5 μL Lipofectamine2000™ (Invitrogen) in 500 μL Opti-MEM (Invitrogen) for 20 min at room temperature. RNA-Lipofectamine2000™ transfection complexes were left on cells for 16-24 hours before washing. For infection, virus-containing supernatant was left on cells for 6-24 hours. Supernatants collected during experiments were sterile filtered and stored at −80° C.
(§2) Anti-Core immunostaining was done with mouse anti-HCV Core protein monoclonal antibody (B2) (Anogen Mississauga, Ontario, Canada) as primary antibody and Alexa Fluor 594 goat anti-mouse IgG (H+L) (Invitrogen) as secondary antibody. HCV RNA titers were determined by a TaqMan™ real-time PCR assay. Infectivity titers were determined as follows: 6×10^3 naïve Huh7.5 cells were plated per well in a poly-D-lysine coated 96-well plate (Nunc) one day before inoculation with three replicates of individual 10-fold dilutions of cell culture supernatants. Inocula were left on cells for 48 hours and cells were fixed using ice could methanol. After washing, blocking buffer (1% BSA, 0.2% skim milk) was added for 20 min and endogenous peroxidases were inhibited by application of H2O2 for 5 min. Primary antibody (anti-NS3, clone H26, Abcam, Cambridge, UK) diluted 1:1000 was left on cells for 3-4 days. Secondary antibody was ECL anti-mouse IgG HRP-linked whole antibody (GE Healthcare Amersham, Brondby, Denmark). Staining was developed using DAB substrate kit (DAKO, Glostrup, Denmark). The number of focus-forming units (FFU) per well were counted manually (dilutions with 5-100 FFU counted) or automatically. Automatic counting was performed on an ImmunoSpot Series 5 UV Analyzer™ (CTL Europe GmbH, Aalen, Baden-Württemberg, DE) with customized software. From FFU counts in experimental wells, the mean of spot counts of negative control wells was subtracted (typically around 5 spots).

Huh7.5 cells [2] = assay: Genetic stability, direct sequencing of complete ORF after passage; details: Table 2; ORF sequenced after passage to naïve cells
Description: RNA was extracted from cell culture supernatant using (Highly Pure Viral Nucleic Acid Kit™, Roche, Mannheim, Del.). RT-PCR was done using SuperScriptIII™ (Invitrogen, Carlsbad, Calif., USA). In 1st round PCR the Advantage 2 PCR Enzyme System was used. Cycle parameters were 35 s at 99° C., 30 s at 67° C. and 10 min (cycle 1-5), 11 min (cycle 6-15), 12 min (cycle 16-25) or 13 min (cycle 26-35) at 68° C. 12˜1 kb products were synthesized in overlapping nested PCRs covering the entire ORF using primer pairs as previously described. Primer pairs 8, 9 and 10 were modified to the genotype specific NS5A sequence (Table 20, SEQ ID NO 163-192). Cycle parameters were 35 s at 99° C. followed by 35 cycles with 35 s at 99° C., 30 s at 67° C. and 6 min at 68° C.
All sequence reactions were performed at Macrogen Inc., Seoul, South Korea. Sequence analysis was performed with Sequencher™ (Gene Codes Corporation) Vector NTI 11 (Invitrogen) and BioEdit™ (Tom Hall, Ibis Therapeutics). HCV sequences were retrieved from the European HCV database (euHCVdb; at the http: internet location //euhcvdb.ibcp.fr/euHCVdb/) and the Los Alamos HCV sequence database (LANL; at the http: Internet location //hcv.lanl.gov/content/hcv-db/index).
Genetic stability of NS5A recombinants after passage to naïve cells. Supernatant samples from transfection culture were passaged to naïve Huh7.5 cells and the complete ORF was sequenced after spread of infection in culture to check for further need of adaptation.

Huh7.5 cells [3] = assay: Infectivity titers (FFU) in supernatant after RNA transfection or viral passage; format: cell-based; details: for 1st passage Log(FFU/mL) / Transfection Log(FFU/mL): Table 1b; for 1st passage Log(FFU/mL): maximum infectivity titer, two values separated by slash = two independent passages; for Peak titers Transfection Log (FFUs/mL) / Peak titers Viral passage Log (FFUs/mL): Table 2; for Peak titers Transfection Log (FFUs/mL): maximum infectivity titer observed in transfection experiments; for Peak titers Viral passage Log (FFUs/mL): maximum infectivity titer observed in viral passage experiments; for Transfection Log(FFU/mL): maximum infectivity titer after transfection, Core-NS2 and NS5A of same genotype
Description: (§3) To determine the efficiency of the developed system, HCV RNA titers are determined in IU/ml (international units/ml) with Taq-Man Real-Time-PCR and infectious titers are determined with a focus-forming units (FFU) method: in this method, infectivity titers are determined by infection of cell culture replicates with serial dilutions of virus containing supernatants and, following immuno-stainings for HCV antigens, counting of HCV-antigen positive cell foci. Alternatively the infectious titers are determined as 50% tissue culture infectious dose.
as §1, §2

Huh7.5 cells [4] = assay: HCV RNA titers by TaqMan real-time PCR; format: cell-based; details: for 1st passage Log(IU/mL): Table 1b, maximum HCV RNA titer, two values separated by slash = two independent passages; for Peak titers Viral passage Log (IU/mL): Table 2, maximum HCV RNA titer in all passage samples analyzed
Description: as §3, §2

| Substance | Genetically stable (Huh7.5 cells [2]) | 1st passage Log(FFU/mL) (Huh7.5 cells [3]) | Peak titers Transfection Log (FFUs/mL) (Huh7.5 cells [3]) | Peak titers Viral passage Log (FFUs/mL) (Huh7.5 cells [3]) | 1st passage Log(IU/mL) (Huh7.5 cells [4]) | Transfection Log(FFU/mL) (Huh7.5 cells [3]) | other results |
| --- | --- | --- | --- | --- | --- | --- | --- |
| ED43/JFH1(ED43-NS5A): ED43 Core-NS2/NS5A recombinant without mutations adaptive for ED43/JFH1, SEQ ID NO 51 | – | – | – | – | – | – | spread / replication in culture (Huh7.5 cells [1]; after transfection into Huh7.5 cells): never spread in culture |
| ED43/JFH12819,3269(ED43-NS5A)5270/7131: ED43 Core-NS2/NS5A recombinant with T5270C/A7131G, SEQ ID NO 193 | – | – | – | – | – | – | spread in culture / to the majority of culture, day after transfection (Huh7.5 cells [1]): 17 days; percentage of culture infected (Huh7.5 cells [1]): 30% |
| ED43/JFH12819, 3269(ED43-NS5A): JFH1-based recombinant with Core-NS2 and NS5A of genotype 4a ED43, SEQ ID NO 52 | No | 1.8 Log(FFU/mL) | 2.0 Log (FFUs/mL) | 1.8 Log (FFUs/mL) | 7.1 Log(IU/mL) | – | Peak titers Viral passage Log (IU/mL) (Huh7.5 cells [4]): 7.1 Log (IU/mL); percentage of culture infected (Huh7.5 cells [1]): 1% |
| HK6a/JFH11389, 1590(HK6a-NS5A)7161: HK6a Core-NS2/NS5A recombinant with T7161A, SEQ ID NO 57 | – | 3.3 Log(FFU/mL) | 2.7 Log (FFUs/mL) | 3.3 Log (FFUs/mL) | – | 2.7 Log(FFU/mL) | – |
| HK6a/JFH11389, 1590(HK6a-NS5A): JFH1-based recombinant with Core-NS2 and NS5A of genotype 6a HK6a, SEQ ID NO 56 | – | – | – | – | 7.0 Log(IU/mL) | – | – |
| J4/JFH12996, 4827(J4-NS5A)3893: J4 Core-NS2/NS5A recombinant with T3893A, SEQ ID NO 48 | Yes | <2.3 Log(FFU/mL) | 2.5 Log (FFUs/mL) | <2.3 Log (FFUs/mL) | – | 2.5 Log(FFU/mL) | – |
| J4/JFH12996, 4827(J4-NS5A): JFH1-based recombinant with Core-NS2 and NS5A of genotype 1b J4, SEQ ID NO 47 | – | 1.0 Log(FFU/mL) and 1.3 Log(FFU/mL) | – | – | – | – | – |
| QC69/JFH12985(QC69-NS5A): JFH1-based recombinant with Core-NS2 and NS5A of genotype 7a QC69, SEQ ID NO 58 | Yes | 4.1 Log(FFU/mL) | 2.7 Log (FFUs/mL) | 4.1 Log (FFUs/mL) | 7.3 Log(IU/mL) | 2.7 Log(FFU/mL) | infectivity titers in 1st passage / after passage to naïve cells (Huh7.5 cells [3]; naïve Huh7.5 cells): above 10^3 FFU/mL; Peak titers Viral passage Log (IU/mL) (Huh7.5 cells [4]): 7.3 Log (IU/mL) |
| S52/JFH12718, 4550(S52-NS5A)7625: S52 Core-NS2/NS5A recombinant with T7625C, SEQ ID NO 50 | Yes | 3.8 Log(FFU/mL) | 2.9 Log (FFUs/mL) | 3.8 Log (FFUs/mL) | – | 2.9 Log(FFU/mL) | – |
| S52/JFH12718, 4550(S52-NS5A): JFH1-based recombinant with Core-NS2 and NS5A of genotype 3a S52, SEQ ID NO 49 | – | 3.1 Log(FFU/mL) | – | – | 7.0 Log(IU/mL) | 2.1 Log(FFU/mL) and 2.4 Log(FFU/mL) | – |
| SA13/JFH1(SA13-NS5A): SA13 Core-NS2/NS5A recombinant without mutations adaptive for SA13/JFH1, SEQ ID NO 53 | – | – | – | – | – | 4.0 Log(FFU/mL) | spread in culture / to the majority of culture, day after transfection (Huh7.5 cells [1]): 20 days |
| SA13/JFH13405, 3696(SA13-NS5A)6284, 7604: SA13 Core-NS2/NS5A recombinant with A6275G and T7604C, SEQ ID NO 55 | Yes | 3.8 Log(FFU/mL) | 4.5 Log (FFUs/mL) | 3.8 Log (FFUs/mL) | – | 4.5 Log(FFU/mL) | – |
